Structures are written as SMILES.

For data set [1], the system named is Cumulus enclosed oocyte (CEO). Put plainly: Oocyte test, cumulus enclosed oocytes (CEO). The class given is cell-based, mice. As to conditions: HX-medium, 24 hours culture. The method, then: (§1) Animals: Immature female mice (B6D2-F1, strain C57B1/2J) were kept under controlled lighting (14 hr light, 10 hr dark) and temperature, with food and water ad libitum. When the animals reached a weight of 13-16 grams (which correspond to the age of 20 to 22 days post partum) they were given a single injection (i.p.) of human menopausal gonadotropin (Humegon, Organon, The Netherlands) containing approximately 20 IU FSH and 20 IU LH (Ziebe, S. et al. Hum. Reprod. 8(1993) 385-88). 48 hours later the animals were killed by cervical dislocation.
(§2) Collection and culture of oocytes: The ovaries were removed, placed in HX-medium (se below) and freed of extraneous tissue. The collection- and culture medium consisted of Eagles minimum essential medium (Flow, USA), containing 4 mM hypoxanthine, 3 mg/ml of bovine serum albumin, 0.23 mM sodium pyruvate, 2 mM glutamine, 100 U/ml of penicillin, and […] of streptomycin (all Sigma, USA). This medium is termed HX-medium. The same medium but without HX was used as control medium.
(§3) The antral follicles of the ovaries were punctured under a dissecting microscope using a 27-gauge needle. Cumulus enclosed oocyte (CEO) of uniform size were selected and rinsed three times in fresh HX-medium.
(§4) Oocytes freed from cumulus cells, i.e. denuded oocytes, DO, were obtained by gentle flushing CEO through a fine-bore mouth-controlled pipet. CEO and DO were cultured in 4-well multidishes (Nunclon, Denmark) containing 0.5 ml of HX-medium except the controls which were cultured in control medium. Each well contained 35 to 50 oocytes.
(§5) The cultures were performed at 37° C. and 100% humidity with 5% CO2 in air. The culture time was 24 hours.
(§6) Examination of oocytes: By the end of the culture period the number of oocytes with germinal vesicle (GV) or germinal vesicle breakdown (GVBD) and those with polar body (PB) was counted in an inverted microscope with differential interference contrast equipment. The percentage of oocytes with GVBD per total number of oocytes and the percentage of oocytes with PB per GVBD was calculated. One unit of MIS activity is defined as: [formula]
(§7) and the number of MIS activity units is calculated as: [formula]

The test system of a further data set is denuded oocytes, DO. Put plainly: Oocyte test, denuded oocytes (DO). The class given is cell-based, mice. As to conditions: HX-medium, 24 hours culture. The method, then:
as §1, §2, §3, §4, §5, §6, §7

Data set [2] relates to oocytes of isolated perfused ovaries. The data set can be described thus: GVB in isolated perfused ovaries from immature rats. Also noted: species or system Immature Sprague-Dawley rats. The following applies: for % GVB (oocytes undergoing germinal vesicle breakdown per total oocytes per ovary), mean±sd: perfusion up to 12 h, 7 ovaries. As to the method:
Animals and Experimental Procedure: Immature Sprague-Dawley rats (body weight: 50-55 g) were injected s.c. with 20 IU pregnant mare serum gonadotropin (PMSG). 48 hours later, the rats were anesthetized with a combination of Ketavet/Rompun (105 and 8.3 mg/kg BW, respectively). Heparin sulfate (300 IU) was injected into the tail vein.
Ovaries with connecting vasculature were surgically isolated and perfusions were performed in a recirculating system (Koos RD et al. (1984) Biol Reprod 30:1135-1141) containing approximately 35 ml of perfusion medium (Medium 199 with Earle's salts supplemented with 50 μg/ml gentamycin sulfate, 0.2 IU/ml insulin, and 4% BSA).
The ovaries were initially perfused for approximately 1 hour to allow metabolic stabilization of the tissue. Only the ovarian specimens which maintained a flow rate between 0.8 and 1.5 ml/min at pressure of 80 mmHg during the stabilization period were used in the experiments.
After 1 hour of preperfusion, the effect of 4,4-dimethyl-5^α-cholesta-8,14,24-triene-3^β-ol (FF-MAS), IBMX (iso-butyl-methyl-xanthine), LH (luteinizing hormone), and cholesterol were tested by dividing the ovarian specimens into control and experimental groups. Additions to the perfusion medium were made as follows:
Prior to addition to the perfusion medium, FF-MAS and cholesterol were diluted in ethanol, and LH and IBMX were diluted in perfusion medium. For the investigation of meiosis, perfusions were continued up to 12 h after addition of the compounds.
At termination of each perfusion ovaries were dissected free from adherent tissue and oocytes isolated under a stereo microscope by manual rupture of the follicles using a pair of 27 gauge needles. Oocytes per ovary were counted and examined using Nomarski differential interference contrast optics.
Oocytes with a germinal vesicle breakdown (GVB) were regarded as undergoing meiotic maturation (Tsafiri et al. (1980) J. Reprod. Fertil. 60:399-402). The % GVB, defined as percentage of oocytes undergoing GVB per total number of oocytes in each ovary was calculated. Each experimental group consisted of 7 perfused ovaries. Data are presented as mean±sd. Statistical differences were calculated by one-way ANOVA followed by Students's t-test. P-values<0.05 indicated a statistically significant higher % GVB in treated groups compared to the control.

As to `CC(=O)OC1CC[C@]2(C)C3=C(CCC2C1(C)C)C1=CC[C@H]([C@H](C)CCCC(C)C)[C@@]1(C)CC3` (some centres unmarked), the melting point lay within 120 to 125 °C.
On to `CC(C)=CCC[C@@H](C)[C@H]1CC[C@H]2C3=C(CC[C@]12C)[C@@]1(C)CC[C@H](O)C(C)(C)[C@@H]1CC3` [4,4-Dimethyl-zymosterol, 4,4-dimethyl-^5α-cholesta-8,24-diene-^3β-ol], for which the “CEO, units of MIS activity” value in data set [1] (0.002 μg/ml) is recorded as 1.0 units of MIS activity; in data set [1] (0.02 μg/ml), 1.3 units of MIS activity; in data set [1] (0.2 μg/ml), 1.3 units of MIS activity; in data set [1] (0.3 μg/ml) it was 2.7 units of MIS activity; in data set [1] (1.2 μg/ml) it was 2.9 units of MIS activity. The “DO, units of MIS activity” value with denuded oocytes, DO (0.002 μg/ml) is 0.9 units of MIS activity; in the data set on denuded oocytes, DO (0.02 μg/ml), 1.5 units of MIS activity; with denuded oocytes, DO (0.2 μg/ml) it was 0.6 units of MIS activity; with denuded oocytes, DO (0.3 μg/ml), 1.8 units of MIS activity; with denuded oocytes, DO (1.2 μg/ml), 2.7 units of MIS activity.
Take `CC(C)CCC[C@@H](C)[C@H]1CC[C@H]2C3=C(CC[C@]12C)[C@@]1(C)CC[C@H](O)C(C)(C)C1CC3` (stereo partly drawn) [4,4-Dimethylcholest-8-ene-^3β-ol]: the “CEO, units of MIS activity” value in data set [1] (0.03 μg/ml) is on record as 12.8 units of MIS activity. Besides, the “DO, units of MIS activity” value in the data set on denuded oocytes, DO (0.03 μg/ml) was 0.8 units of MIS activity.
As to `CC(C)CCC[C@@H](C)[C@H]1CC=C2C3=C(CC[C@@]21C)[C@@]1(C)CC[C@H](O)C(C)(C)C1CC3` (stereo partly drawn) [4,4-Dimethylcholesta-8,14-dien-^3β-ol, 4,4-Dimethylcholesta-8,14-Dien-^3β-ol], in data set [1] (3.0 μg/ml), the “CEO, units of MIS activity” value was 0 units of MIS activity. In addition, the “DO, units of MIS activity” value in the data set on denuded oocytes, DO (3.0 μg/ml) is given as 2.25 units of MIS activity.
Consider `CC(C)=CCC[C@@H](C)[C@H]1CC=C2C3=C(CC[C@@]21C)[C@@]1(C)CC[C@H](O)C(C)(C)[C@@H]1CC3` [4,4-dimethyl-^5α-cholesta-8,14,24-triene-^3β-ol], for which the “CEO, units of MIS activity” value is reported as 0.5 units of MIS activity in data set [1] (0.03 μg/ml) and 2.3 units of MIS activity in data set [1] (0.3 μg/ml). For the same molecule, the “DO, units of MIS activity” value with denuded oocytes, DO (0.03 μg/ml) is 1.6 units of MIS activity; in the data set on denuded oocytes, DO (0.3 μg/ml) it was 0.6 units of MIS activity. Also, the results for the “% GVB (oocytes undergoing germinal vesicle breakdown per total oocytes per ovary), mean±sd” value in data set [2] (30 μM with 0.2 mM IBMX) and in data set [2] (60 μM with 0.2 mM IBMX) were 14.6±4.2% and 66.9±7.4%, respectively. The effective dose in data set [2] (corresponds to the effective 30-60 μM in perfused rat ovaries) is on record as 12-24 mg/liter bood volume.
As for `CC(C)=CCC[C@@H](C)[C@H]1CC[C@H]2C3=C(CC[C@]12C)[C@@]1(C)CC[C@H](O)C[C@@H]1CC3` [Zymosterol], the “CEO, units of MIS activity” value in data set [1] (0.001 μg/ml) was 0.2 units of MIS activity; in data set [1] (0.01 μg/ml), 0.4 units of MIS activity; in data set [1] (0.1 μg/ml), 1.1 units of MIS activity. Besides, the “DO, units of MIS activity” value with denuded oocytes, DO (0.01 μg/ml) is given as 0.6 units of MIS activity; in the data set on denuded oocytes, DO (0.1 μg/ml), 1.2 units of MIS activity.
As for `CC(C)=CCC[C@@H](C)[C@H]1CC[C@H]2C3=C(CC[C@]12C)[C@@]1(C)CC[C@H](O)[C@H](C)[C@@H]1CC3` [^4β-Methylzymosterol, 4^β-Methylzymosterol], the figures for the “CEO, units of MIS activity” value in data set [1] (0.13 μg/ml) and in data set [1] (3.9 μg/ml) were 2.4 units of MIS activity and 3.5 units of MIS activity, respectively. Besides, the “DO, units of MIS activity” value is 0.8 units of MIS activity in the data set on denuded oocytes, DO (0.13 μg/ml) and 6.2 units of MIS activity in the data set with denuded oocytes, DO (3.9 μg/ml).
For the molecule `CC(C)CCC[C@@H](C)[C@H]1CC[C@H]2[C@@H]3CC=C4C[C@@H](O)CC[C@]4(C)[C@H]3CC[C@]12C` [cholesterol, reference compound], in data set [2] (60 μM with 0.2 mM IBMX), the “% GVB (oocytes undergoing germinal vesicle breakdown per total oocytes per ovary), mean±sd” value is on record as 2.1±1.8%.

For orientation: melting point means the temperature, or range, at which the solid turns liquid.

Values taken from patent publication US20030004148A1, “Regulation of meiosis” (priority 1994, published 2003).
